In US9296687B2, “Modulators of HSP70/DnaK function and methods of use thereof” (The Trustees of the University of Pennsylvania, priority 2008, dated 2016):

Experiments:
HSP70 [1] = test: Capture of HA-tagged HSP70 constructs from transfected H1299 cells with biotinylated compound; type: binding, human; settings: biotinylated PES
Method: FIG. 1. PES Binds to HSP70. (A) Whole cell extracts (WCE) prepared from A875 and BCL-xL over-expressing U2OS human osteosarcoma cells (BX-U2OS) cells, treated with Biotin or Biotin-PES (B-PES), were captured using NeutrAvidin agarose resins. HSP70-family proteins were identified as the major product in the excised band of ˜70 kDa shown in both Coomassie gels. (B and C) WCE were prepared from the cell lines indicated following 24 h treatment with 20 μM Biotin or B-PES and examined for the expression of proteins indicated (left panel of B and C) by western blot analysis; note that different exposure times were used to visualize these proteins. […] (D) In vitro evidence for an interaction between B-PES and HSP70. Full-length human HSP70 and human HSP90 proteins were in vitro translated in the presence of ^35S-methionine, mixed with B-PES coupled to NeutrAvidin resins, and eluted using 100 mM DTT. […] (F) Non-transformed human IMR90 fibroblasts or H1299 lung carcinoma cells were treated with the indicated concentrations of PES for 24 h and cell viability was determined by MTT assays. […]
The free amide group of PES-Cl was biotinylated and added to HA-tagged HSP70-transfected H1299 cells. […] The complexes were pulled down with NeutrAvidin beads, eluted with 100 mM DTT treatments, separated with SDS-PAGE and detected with anti-HA antibody (Millipore) by Western blot. […]

cathepsin L = test: Western blot of cathepsin L processing; type: cell-based, human; settings: 20 μM, 24 h
HSP70 [2] = target: HSP70 (Homo sapiens, UniProt P0DMV8); test: Competition of untagged PES with B-PES for HSP70; type: binding; design: endogenous in cells; host or cells: human tumor cell lines (A875, BX-U2OS, U2OS, H1299, MiaPaCa2, HepG2, SKBR3, 293T)
Method: FIG. 15. Evidence supporting HSP70 as the cellular target of PES. (A) Competition studies in vivo support HSP70 as a PES target. H1299 cells were either pre-treated with DMSO or excess (25×) untagged PES for 1 h prior to the addition of 20 μM Biotin-PES (B-PES) for 5 h, and examined for the expression of proteins indicated (left). B-PES-containing complexes were captured by NeutrAvidin Resins, and immunoblotted using the indicated antibodies. […] (B) Competition studies in vitro support HSP70 as a PES target. Purified HSP70 protein was incubated with 0.25 mM B-PES in the absence and in the presence of 0.125 mM untagged PES.

caspase-3, caspase-8 = test: Western blot for caspase cleavage; type: cell-based, human
FaDu tumor xenografts = test: FaDu xenograft, western blot of tumor lysates for p62/SQSTM1 and LC3; type: in vivo, nude mice; settings: 40 mg/kg intratumoral
NF-κB = test: NF-κB-dependent luciferase reporter in H1299 cells; type: cell-based, human
Method: FIG. 4. PES Interferes with HSP70 Actions. […] (B) IP-WB analyses of WCE from PES-treated U2OS osteosarcoma cells reveal a lower bundance of HSP70 complexes containing BAG-1M or APAF1. […] Note evidence of caspase cleavage in cisplatin-treated cells, but not in the presence of PES. […] (D) (left) H1299 cells were transfected with a NF-κB-dependent luciferase reporter. 24 h later, cells were either pretreated with DMSO or the indicated amount of PES for 1 h, followed by the addition of 20 ng/ml of TNFα for 5 h, as specified. Each graphical representation indicates the mean±SD of at least three independent cultures relative to control (DMSO-treated) cells. (right) H1299 cells were treated with 20 μM PES for 5.7 h, followed by treatment with 10 ng/ml TNFα for 20 min. WCE were immunoblotted for the proteins indicated.

Sequence of HSP70 (Homo sapiens, UniProt P0DMV8) (P0DMV8 whole entry): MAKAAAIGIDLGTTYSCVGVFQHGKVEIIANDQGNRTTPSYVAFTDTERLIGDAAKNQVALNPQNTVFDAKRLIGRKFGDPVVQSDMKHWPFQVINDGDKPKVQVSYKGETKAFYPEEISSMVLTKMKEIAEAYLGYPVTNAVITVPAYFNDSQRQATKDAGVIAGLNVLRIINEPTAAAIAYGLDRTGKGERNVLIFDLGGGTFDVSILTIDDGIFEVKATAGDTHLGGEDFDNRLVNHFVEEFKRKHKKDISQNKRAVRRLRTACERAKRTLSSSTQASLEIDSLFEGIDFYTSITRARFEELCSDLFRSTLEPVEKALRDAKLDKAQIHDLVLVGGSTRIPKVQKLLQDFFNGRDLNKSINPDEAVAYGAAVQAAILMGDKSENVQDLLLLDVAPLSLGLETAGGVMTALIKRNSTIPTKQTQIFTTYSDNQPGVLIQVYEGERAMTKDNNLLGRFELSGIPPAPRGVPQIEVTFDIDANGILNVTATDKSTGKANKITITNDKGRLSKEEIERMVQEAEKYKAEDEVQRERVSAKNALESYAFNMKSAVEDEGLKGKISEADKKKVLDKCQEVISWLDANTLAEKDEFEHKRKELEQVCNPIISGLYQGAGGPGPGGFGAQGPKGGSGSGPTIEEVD

NS(=O)(=O)C#Cc1ccccc1 [PES, 2-Phenylethynesulfonamide]
binding to HSP70 mutants L558R and Y611S (HSP70 [1]): failed to bind PES | processing of cathepsin L (cathepsin L): accumulation of the precursor pro-cathepsin L and a markedly reduced abundance of the smaller, mature form of the enzyme | binding of HSP70 to B-PES matrix with competitor (HSP70 [2]; H1299 cells, excess (25×) untagged PES 1 h, then 20 μM B-PES 5 h): Binding of HSP70 to the matrix is reduced | B-PES/HSP70 complex formation (HSP70 [2]; purified HSP70, 0.25 mM B-PES, 0.125 mM untagged PES): reduces B-PES/HSP70 complex formation | cleavage of caspase-3, caspase-8 or PARP (caspase-3, caspase-8; PES 20 μM alone): not accompanied by cleavage of caspase-3, caspase-8, or PARP | caspase-cleavage products after cisplatin (caspase-3, caspase-8; co-treatment with cisplatin): effectively inhibited the appearance of these caspase-cleavage products | LC3 in detergent-insoluble tumor fractions (FaDu tumor xenografts): accumulated LC3 in the detergent-insoluble fractions | p62/SQSTM1 abundance and oligomerization in tumor (FaDu tumor xenografts; 24 and 48 hr): increased p62/SQSMT1 abundance and oligomerization | unstimulated NF-κB activity (NF-κB): inhibited unstimulated NF-κB activity in a dose-dependent manner | NF-κB activation stimulated by TNFα (NF-κB; TNFα): inhibited NF-κB activation
